Test results reported in US20080274892A1, “Novel Haloalkylsulfonanilide Derivative, Herbicide, and Method of Use Thereof” (priority 2005, published 2008).

Legend:
bulrush [1] = assay: Test Example 2: herbicidal efficacy on rice paddy weeds post-emergence; type: in vivo, Scirpus juncoides; conditions: post-emergence, one leaf stage, 21 days after treatment
false pimpernel [2] = assay: Test Example 1: herbicidal efficacy on rice paddy weeds pre-emergence; type: in vivo, Lindernia pyxidaria; conditions: 21 days
bulrush [3] = assay: as above; type: in vivo, Scirpus juncoides; conditions: 21 days
[4] = system: paddy rice plant (cultivar: Nihonbare); assay: Test Example 3: phytotoxicity test for transplanted paddy rice plant; type: in vivo; conditions: transplanted rice, 21 days after treatment
Method in brief: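 Clay loam soil was placed in a 75 cm^2 plastic pot and flooded to a water depth of 5 cm. Two Nihonbare paddy rice plants at the two-leaf stage were transplanted 1 cm deep and grown in a hot house. After treatment, pots stayed in the hot house for 21 days, and phytotoxicity was then graded against an untreated control.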

barnyard glass = assay: Test Example 2: herbicidal efficacy on rice paddy weeds post-emergence; type: in vivo, Echinochloa crus-galli; conditions: post-emergence, one leaf stage, 21 days after treatment
Excerpt: The standard of judgment for herbicidal efficacy (degree of growth inhibition) and phytotoxicity 4 . . . 90%-100% of herbicidal efficacy or phytotoxicity 3 . . . 70%-89% of herbicidal efficacy or phytotoxicity 2 . . . 40%-69% of herbicidal efficacy or phytotoxicity 1 . . . 1%-39% of herbicidal efficacy or phytotoxicity 0 . . . 0% of herbicidal efficacy or phytotoxicity
A 75 cm^2 plastic pot was filled with soil (clay loam) and planted seeds of barnyard glass and bulrush which is a rice paddy weed. After covering the top with 75 cm^3 soil mixed with seeds of false pimpernel, the pot was filled with water so that the soil submerged under 5 cm depth of water and kept in a hot house. […] The pot was kept in a hot house for 21 days after the treatment and the herbicidal efficacy was investigated and evaluated according to the standard in Test Example 1 by comparing with the untreated control. “-” in the table represents test not done.

false pimpernel [5] = assay: as above; type: in vivo, Lindernia pyxidaria; conditions: post-emergence, one leaf stage, 21 days after treatment
[6] = dosage 1000 g/ha, treated 5 days after transplantation

Structure (SMILES)	Bulrush post (herbicidal efficacy grade) (bulrush [1]; dosage 300 g/ha)	False pimpernel pre (herbicidal efficacy grade) (false pimpernel [2]; dosage 300 g/ha)	Bulrush pre (herbicidal efficacy grade) (bulrush [3]; dosage 300 g/ha)	Phytotoxicity to paddy rice ([4]; dosage 300 g/ha)	Burnyard grass post (herbicidal efficacy grade) (barnyard glass; dosage 300 g/ha)	False pimpernel post (herbicidal efficacy grade) (false pimpernel [5]; dosage 300 g/ha)	Bulrush post (herbicidal efficacy grade) (bulrush [1]; dosage 1000 g/ha)	False pimpernel pre (herbicidal efficacy grade) (false pimpernel [2]; dosage 1000 g/ha)	Bulrush pre (herbicidal efficacy grade) (bulrush [3]; dosage 1000 g/ha)	Phytotoxicity to paddy rice [4, 6]	Burnyard grass post (herbicidal efficacy grade) (barnyard glass; dosage 1000 g/ha)	False pimpernel post (herbicidal efficacy grade) (false pimpernel [5]; dosage 1000 g/ha)
CC(C)COC(=O)N(c1ccccc1CN1CC(COc2ccccc2)OC1=O)S(=O)(=O)C(F)(F)F (racemic) [Compound 1-52]	4 (90%-100% of herbicidal efficacy or phytotoxicity)	4 (90%-100% of herbicidal efficacy or phytotoxicity)	4 (90%-100% of herbicidal efficacy or phytotoxicity)	0 (0% of herbicidal efficacy or phytotoxicity)	3 (70%-89% of herbicidal efficacy or phytotoxicity)	4 (90%-100% of herbicidal efficacy or phytotoxicity)						
CC[C@H]1CN(Cc2ccccc2N(C(=O)OCC(C)C)S(=O)(=O)C(F)(F)F)C(=O)O1 [Compound 1-56]	4 (90%-100% of herbicidal efficacy or phytotoxicity)	4 (90%-100% of herbicidal efficacy or phytotoxicity)	4 (90%-100% of herbicidal efficacy or phytotoxicity)	1 (1%-39% of herbicidal efficacy or phytotoxicity)	4 (90%-100% of herbicidal efficacy or phytotoxicity)	3 (70%-89% of herbicidal efficacy or phytotoxicity)						
O=C1OC(CCl)CN1Cc1ccccc1NS(=O)(=O)C(F)(F)F (stereo not drawn) [Compound 1-39]							4 (90%-100% of herbicidal efficacy or phytotoxicity)	4 (90%-100% of herbicidal efficacy or phytotoxicity)	4 (90%-100% of herbicidal efficacy or phytotoxicity)	0 (0% of herbicidal efficacy or phytotoxicity)	2 (40%-69% of herbicidal efficacy or phytotoxicity)	4 (90%-100% of herbicidal efficacy or phytotoxicity)
CC1(C2CCCCC2)CN(Cc2ccccc2NS(=O)(=O)C(F)(F)F)C(=O)O1 (stereo not drawn) [Compound 1-154]	4 (90%-100% of herbicidal efficacy or phytotoxicity)	4 (90%-100% of herbicidal efficacy or phytotoxicity)	4 (90%-100% of herbicidal efficacy or phytotoxicity)	1 (1%-39% of herbicidal efficacy or phytotoxicity)	1 (1%-39% of herbicidal efficacy or phytotoxicity)	4 (90%-100% of herbicidal efficacy or phytotoxicity)						
CC(C)COC(=O)N(c1ccccc1CN1C(=O)OC(C)(C)C1(C)C)S(=O)(=O)C(F)(F)F [Compound 1-74]							4 (90%-100% of herbicidal efficacy or phytotoxicity)	4 (90%-100% of herbicidal efficacy or phytotoxicity)	4 (90%-100% of herbicidal efficacy or phytotoxicity)	4 (90%-100% of herbicidal efficacy or phytotoxicity)	4 (90%-100% of herbicidal efficacy or phytotoxicity)	4 (90%-100% of herbicidal efficacy or phytotoxicity)
CC(C)COC(=O)N(c1ccccc1CN1CC(C)(C2OC2(C)C)OC1=O)S(=O)(=O)C(F)(F)F (stereo not drawn) [Compound 1-177]							4 (90%-100% of herbicidal efficacy or phytotoxicity)	4 (90%-100% of herbicidal efficacy or phytotoxicity)	4 (90%-100% of herbicidal efficacy or phytotoxicity)	1 (1%-39% of herbicidal efficacy or phytotoxicity)	4 (90%-100% of herbicidal efficacy or phytotoxicity)	4 (90%-100% of herbicidal efficacy or phytotoxicity)
CC(C)CC1(C)CN(Cc2ccccc2NS(=O)(=O)C(F)(F)F)C(=O)O1 (racemic) [Compound 1-103]	4 (90%-100% of herbicidal efficacy or phytotoxicity)	4 (90%-100% of herbicidal efficacy or phytotoxicity)	4 (90%-100% of herbicidal efficacy or phytotoxicity)	2 (40%-69% of herbicidal efficacy or phytotoxicity)	4 (90%-100% of herbicidal efficacy or phytotoxicity)	4 (90%-100% of herbicidal efficacy or phytotoxicity)						
CC(=O)OCC1CN(Cc2ccccc2N(C(=O)OCC(C)C)S(=O)(=O)C(F)(F)F)C(=O)O1 (stereo not drawn) [Compound 1-38]	3 (70%-89% of herbicidal efficacy or phytotoxicity)	2 (40%-69% of herbicidal efficacy or phytotoxicity)	3 (70%-89% of herbicidal efficacy or phytotoxicity)	0 (0% of herbicidal efficacy or phytotoxicity)	1 (1%-39% of herbicidal efficacy or phytotoxicity)	1 (1%-39% of herbicidal efficacy or phytotoxicity)						
CC(C)COC(=O)N(c1ccccc1CN1CC(C)(CC(C)C)OC1=O)S(=O)(=O)C(F)(F)F (racemic) [Compound 1-104]							4 (90%-100% of herbicidal efficacy or phytotoxicity)	4 (90%-100% of herbicidal efficacy or phytotoxicity)	4 (90%-100% of herbicidal efficacy or phytotoxicity)	2 (40%-69% of herbicidal efficacy or phytotoxicity)	4 (90%-100% of herbicidal efficacy or phytotoxicity)	4 (90%-100% of herbicidal efficacy or phytotoxicity)
CC(C)COC(=O)N(c1ccccc1CN1CC(C)(C(C)(C)C)OC1=O)S(=O)(=O)C(F)(F)F (stereo not drawn) [Compound 1-70]							4 (90%-100% of herbicidal efficacy or phytotoxicity)	4 (90%-100% of herbicidal efficacy or phytotoxicity)	4 (90%-100% of herbicidal efficacy or phytotoxicity)	1 (1%-39% of herbicidal efficacy or phytotoxicity)	4 (90%-100% of herbicidal efficacy or phytotoxicity)	4 (90%-100% of herbicidal efficacy or phytotoxicity)
COC(=O)N(c1ccccc1CN1CC(C)(COCc2ccccc2)OC1=O)S(=O)(=O)C(F)(F)F (stereo not drawn) [Compound 1-175]							4 (90%-100% of herbicidal efficacy or phytotoxicity)	4 (90%-100% of herbicidal efficacy or phytotoxicity)	4 (90%-100% of herbicidal efficacy or phytotoxicity)	1 (1%-39% of herbicidal efficacy or phytotoxicity)	4 (90%-100% of herbicidal efficacy or phytotoxicity)	4 (90%-100% of herbicidal efficacy or phytotoxicity)
COCC1CN(Cc2ccccc2N(C(=O)OCC(C)C)S(=O)(=O)C(F)(F)F)C(=O)O1 (stereo not drawn) [Compound 1-36]							4 (90%-100% of herbicidal efficacy or phytotoxicity)	4 (90%-100% of herbicidal efficacy or phytotoxicity)	4 (90%-100% of herbicidal efficacy or phytotoxicity)	1 (1%-39% of herbicidal efficacy or phytotoxicity)	4 (90%-100% of herbicidal efficacy or phytotoxicity)	4 (90%-100% of herbicidal efficacy or phytotoxicity)
Cc1c(Cl)ccc(OC(C)C(=O)N(c2ccccc2CN2CC(C)(C)OC2=O)S(=O)(=O)C(F)(F)F)c1Cl (stereo not drawn) [Compound 1-139]	4 (90%-100% of herbicidal efficacy or phytotoxicity)	4 (90%-100% of herbicidal efficacy or phytotoxicity)	4 (90%-100% of herbicidal efficacy or phytotoxicity)	3 (70%-89% of herbicidal efficacy or phytotoxicity)	3 (70%-89% of herbicidal efficacy or phytotoxicity)	4 (90%-100% of herbicidal efficacy or phytotoxicity)						
CC1(COc2ccccc2)CN(Cc2ccccc2NS(=O)(=O)C(F)(F)F)C(=O)O1 (stereo not drawn) [Compound 1-155]	4 (90%-100% of herbicidal efficacy or phytotoxicity)	4 (90%-100% of herbicidal efficacy or phytotoxicity)	4 (90%-100% of herbicidal efficacy or phytotoxicity)	1 (1%-39% of herbicidal efficacy or phytotoxicity)	1 (1%-39% of herbicidal efficacy or phytotoxicity)	4 (90%-100% of herbicidal efficacy or phytotoxicity)						
